Experiment [1] relates to HEKα15#17 cells (control cell line without sweet receptor). Put plainly: Same calcium assay on the control cell line without sweet receptor. The experiment is classed as cell-based. As to conditions: FIG. 1 grey bars. The protocol:
(§1) For measurement of human T1R2/T1R3 taste receptor dependent activity a control cell line without sweet receptor based on HEK 293 and a cell line expressing the sweet receptor hT1R2/hT1R3 based on HEK 293, respectively, are seeded into assay plates and labelled with the calcium sensitive fluorescence dye Fluo4-AM in a culture medium. The potential modulators, e.g. the test compound, are added to the control cell line and to the cell line expressing the sweet receptor hT1R2/hT1R3, respectively.
(§2) A stable cell line based on HEK293 was termed HEKα15#17 served as control for functional Gα-protein and a stable cell line HEKGα15#17R2R3b#8 C6 served as cell line expressing the sweet receptor hT1R2/hT1R3 based on HEKGα15#17.
The cells were cultured in DMEM/HG and 10% FCS Gold, 4 mM L-Glutamin, 1.3 mg/ml Geneticin (HEKGα15#17) or the same medium additionally containing 6 μg/ml Blasticidin (HEKGα15#17R2R3b#8 C6). The medium for the assay was DMEM/HG (high glucose, 4.5 g/l glucose, Life Technologies) and 10% FCS Gold, 4 mM L-Glutamin (HEKGα15#17) or DMEM/LG (low glucose, 1 g/l glucose; Life Technologies) and 10% FCS Gold (HEKGα15#17R2R3b#8C6), respectively. 1.3 Evaluation of the sweet receptor modulating activity of rosmarinic acid
In order to evaluate the sweet receptor modulating activity of rosmarinic acid, rosmarinic acid was added to the cultures in a concentration of 25 μM in a volume of 50 μl. Controls were KH-buffer (Krebs HEPES-buffer: 118 mM NaCl, 4.7 mM KCl, 1.2 mM MgSO4, 1.2 mM KH2PO4, 4.2 mM NaHCO3, 1.3 mM CaCl2, 10 mM Hepes, pH 7.4) either without or with sweetness enhancer.
Further controls for function of G-protein and receptor were isoproterenol Sigma Aldrich), ionomycin (1 μM, Calbiochem) and ATP (1 μM, Applichem).
For measurement of human T1R2/T1R3 taste receptor dependent activity, on day 1 of the test procedure the HEKα15#17 cells (control cell line without sweet receptor) and the HEKGα15#17R2R3b#8 C6 cells (cell line expressing the sweet receptor hT1R2/hT1R3), respectively, were transferred to low-glucose medium.
On day 2 the cells were seeded into assay plates at a density of 25.000 cells/well. Assay plates for fluorescence measurement (black clear bottom 96-cavity plates, Greiner Bio-One) were coated with poly-D-lysine. For direct comparison both cell lines (control cell line without sweet receptor and cell line expressing the sweet receptor hT1R2/hT1R3) were seeded into different cavities of the same assay plate. The plate was placed into the incubator for 48 hours at 37° C., 5% CO2, 100% relative humidity.
On day 4 the calcium assay was performed. For this assay, the cells were marked with Fluo4-AM in medium and KH-buffer. To each cavity 100 μl KH-Puffer/250 μM sulfinpyrazone/4 μM Fluo4-AM were added gently to 100 μl medium (final concentration of Fluo4-AM=2 μM, stock solution of Fluo4-AM 1 mM in DMSO, excitation at 485 nm, emission at 520 nm, Fisher Scientific, 58239 Schwerte, Germany).
The plate was placed into the incubator for 1 hour. In the mean time the test substances (“ligands”) were prepared in a separate plate (5 times concentrated, 150 μl/cavity, and then automatically 50 μl/cavity were transferred into the screening cell plate by pipetting robot (FLEX-station, Molecular Devices, Sunnyvale, Calif.).
The culture medium was carefully removed and 200 μl KH-buffer/250 μM sulfinpyrazone per cavity was added slowly. Cells were left in the FLEX-station for 20 minutes for adaptation, followed by measurement at 37° C.
In the bar diagram the grey bars (control—without hT1R2/hT1R3) indicate the measured Fluo4-AM fluorescence increase of the respective test compound added to the control cell line, the black bars (assay—with hT1R2/hT1R3) indicate the measured Fluo4-AM fluorescence increase of the respective test compound added to the cell line expressing the sweet receptor hT1R2/hT1R3.

Experiment [2] in a line: Taste and spit assay with a panel of trained sensory evaluators. Type of experiment: in vivo, human. The following applies: 5 panelists. The source says:
The taste of a sample of a compound, e.g. rosmarinic acid, with regard to sweetness and/or sweetness enhancing properties, in other embodiments, may be assessed in vivo by using a panel of trained sensory evaluators experienced in the sweet taste estimation procedure, e.g. in the taste and spit assay as described e.g. in Example 2.
In these cases, panelists are asked to take a sample of the liquid to be assessed (test substance, e.g. rosmarinic acid) into the mouth and after some time allowed for taste perception to spit the sample out completely. Subsequently, the panelists are asked to rinse their mouth well with water or black tea to reduce any potential carry over effects. The tasting of a sample can be repeated if required.
In a first descriptive test (qualitative assessment for sweetness) the panelists are asked to taste the quality of single samples (maximum 3 subsequent samples). The individuals of the taste panel are asked to answer the following questions with regard to the quality of taste: 1) does the sample taste sweet?. 2) is there another taste detectable (bitter, sour, salty, umami)?. 3) is there an off- or aftertaste?. 4) is there anything else remarkable about the perception of the sample?
In the next step (assessment of sweetness enhancing, e.g. fructose enhancing, features) the panelists are asked to answer questions in a pairwise comparison test to determine the enhancement of sweet taste of the test substance with fructose relative to fructose only. Again the panelists are given samples. Two samples are prepared for direct comparison regarding sweetness. One sample contains fructose in a solvent and the other sample additionally contains the test substance. Designation of the samples with A and B is randomized and is decoded after the taste procedure. The questions to be answered are: 1) does one sample taste sweeter than the other?, 2) if so, which one?, 3) are there any other differences in the taste between the two samples? The result of the taste and spit assay is a qualitative evaluation of the differences between the two samples.
The taste of a sample of rosmarinic acid with regard to sweetness and fructose enhancing features was assessed by using a panel of trained sensory evaluators experienced in the sweet taste estimation procedure. 5 individuals were asked to taste the quality of single samples of 10 ml volume.
Panelists were asked to take a sample of the liquid to be assessed (20 μM test substance rosmarinic acid in 0.5% ethanol) into the mouth and after some time allowed for taste perception to spit the sample out completely. Subsequently, the panelists were asked to rinse their mouth well with water or black tea to reduce any potential carry over effects. The tasting of a sample could be repeated if required. […]

Experiment [3] has as its target T1, human taste receptor T1R2/T1R3 (Homo sapiens, UniProt Q7RTX0+Q8TE23).
T1 construct: expressed in transfected cells; host or cells: HEK293 stably expressing mouse G-alpha-15 (HEKGα15#17R2R3b#8 C6)
T1 sequence (Q8TE23 20-839): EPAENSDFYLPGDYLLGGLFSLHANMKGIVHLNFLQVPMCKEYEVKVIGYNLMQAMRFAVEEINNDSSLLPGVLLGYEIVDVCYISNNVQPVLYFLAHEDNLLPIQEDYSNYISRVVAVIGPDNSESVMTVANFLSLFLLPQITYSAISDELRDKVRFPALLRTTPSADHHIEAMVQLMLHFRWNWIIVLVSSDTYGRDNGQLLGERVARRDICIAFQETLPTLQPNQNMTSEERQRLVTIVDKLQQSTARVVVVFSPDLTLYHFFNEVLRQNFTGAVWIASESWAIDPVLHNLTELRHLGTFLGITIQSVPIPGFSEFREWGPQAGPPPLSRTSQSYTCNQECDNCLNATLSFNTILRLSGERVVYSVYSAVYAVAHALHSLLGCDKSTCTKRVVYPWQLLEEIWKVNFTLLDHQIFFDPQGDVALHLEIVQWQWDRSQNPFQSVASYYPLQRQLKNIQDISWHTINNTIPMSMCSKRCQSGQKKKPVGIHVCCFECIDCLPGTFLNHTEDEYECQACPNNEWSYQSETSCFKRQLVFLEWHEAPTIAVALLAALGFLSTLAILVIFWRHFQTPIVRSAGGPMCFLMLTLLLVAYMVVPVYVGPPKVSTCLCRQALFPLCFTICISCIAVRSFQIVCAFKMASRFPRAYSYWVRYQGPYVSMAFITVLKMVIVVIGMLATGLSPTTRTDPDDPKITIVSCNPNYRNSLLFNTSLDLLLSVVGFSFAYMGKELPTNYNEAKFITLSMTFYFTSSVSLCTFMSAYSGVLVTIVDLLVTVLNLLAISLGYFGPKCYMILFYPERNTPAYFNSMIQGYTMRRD
T1 sequence (Q7RTX0 21-852): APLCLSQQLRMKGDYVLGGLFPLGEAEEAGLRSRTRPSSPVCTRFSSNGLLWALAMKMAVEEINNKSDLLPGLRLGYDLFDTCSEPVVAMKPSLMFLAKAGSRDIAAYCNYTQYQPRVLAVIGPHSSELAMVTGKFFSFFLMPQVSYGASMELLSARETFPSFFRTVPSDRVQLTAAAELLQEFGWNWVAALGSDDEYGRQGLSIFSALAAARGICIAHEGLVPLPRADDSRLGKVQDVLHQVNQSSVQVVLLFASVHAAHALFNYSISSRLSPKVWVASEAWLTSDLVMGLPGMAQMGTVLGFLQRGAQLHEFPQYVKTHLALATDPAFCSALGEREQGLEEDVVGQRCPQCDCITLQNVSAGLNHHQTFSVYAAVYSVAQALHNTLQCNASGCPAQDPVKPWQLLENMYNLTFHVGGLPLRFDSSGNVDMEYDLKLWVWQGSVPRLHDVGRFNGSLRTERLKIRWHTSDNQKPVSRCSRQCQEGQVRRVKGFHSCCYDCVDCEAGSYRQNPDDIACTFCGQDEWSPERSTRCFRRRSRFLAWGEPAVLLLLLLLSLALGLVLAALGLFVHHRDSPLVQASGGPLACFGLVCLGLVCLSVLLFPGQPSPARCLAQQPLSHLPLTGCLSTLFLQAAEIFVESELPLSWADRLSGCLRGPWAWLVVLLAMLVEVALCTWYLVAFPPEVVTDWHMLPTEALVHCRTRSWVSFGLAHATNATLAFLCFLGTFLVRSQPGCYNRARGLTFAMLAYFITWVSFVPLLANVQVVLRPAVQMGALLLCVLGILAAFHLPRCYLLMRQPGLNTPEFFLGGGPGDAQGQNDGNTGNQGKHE
Put plainly: Recombinant human taste receptor T1R2/T1R3 dependent cell based calcium assay (Fluo4-AM), cell line expressing the sweet receptor. The protocol: as §1, §2
The cells were cultured in DMEM/HG and 10% FCS Gold, 4 mM L-Glutamin, 1.3 mg/ml Geneticin (HEKGα15#17) or the same medium additionally containing 6 μg/ml Blasticidin (HEKGα15#17R2R3b#8 C6). The medium for the assay was DMEM/HG (high glucose, 4.5 g/l glucose, Life Technologies) and 10% FCS Gold, 4 mM L-Glutamin (HEKGα15#17) or DMEM/LG (low glucose, 1 g/l glucose; Life Technologies) and 10% FCS Gold (HEKGα15#17R2R3b#8C6), respectively. […]
On day 2 the cells were seeded into assay plates at a density of 25.000 cells/well. Assay plates for fluorescence measurement (black clear bottom 96-cavity plates, Greiner Bio-One) were coated with poly-D-lysine. […]

Setting [4] is: test compound without added enhancer/fructose, sodium cyclamate 30 mM, ATP 1 μM, ionomycin 1 μM, fructose 20 mM, rosmarinic acid 25 μM.
[5] abbreviates: 20 μM with 4% fructose in 0.5% ethanol.

“Also recorded” adds a separate entry of the source.

On to `Nc1ncnc2c1ncn2[C@@H]1O[C@H](COP(=O)(O)OP(=O)(O)OP(=O)(O)O)[C@@H](O)[C@H]1O` [ATP], for which, in experiment [1] (setting [4]), the “Fluo4-AM fluorescence increase (activation) of the control cell line” value (shortened to “Fluo4-AM fluorescence increase”) is on record as “activate”.

As to `O=C(CO)[C@@H](O)[C@H](O)[C@H](O)CO` [fructose], the “Fluo4-AM fluorescence increase” value in experiment [1] (setting [4]) is recorded as “does neither activate”.

Regarding `C[C@H](CCC(=O)O)C[C@H](C)C[C@H](C)C(=O)/C=C(\O)[C@H](C)C[C@H](C)C/C=C/[C@@H](C)[C@@H](O)[C@@H](C)[C@@H](O)C[C@@H]1CC[C@@](C)([C@H]2CC[C@@](C)([C@@H](C)O)O2)O1` [ionomycin], the “Fluo4-AM fluorescence increase” value in experiment [1] (setting [4]) is on record as “activate”.

Consider `CC(C)NCC(O)c1ccc(O)c(O)c1` (stereo not shown) [isoproterenol], for which the “Fluo4-AM fluorescence increase” value in experiment [1] (setting [4]) is on record as “activate”.

As for `O=C(/C=C/c1ccc(O)c(O)c1)O[C@H](Cc1ccc(O)c(O)c1)C(=O)O` [rosmarinic acid], in experiment [1] (rosmarinic acid 25 μM in the presence of fructose (20 mM)), the “Fluo4-AM fluorescence increase” value is “does not activate”. In addition, the “Fluo4-AM fluorescence increase” value in experiment [1] (setting [4]) is “does not activate”. In addition, the “Off-taste or other taste (Phase I qualitative assessment)” value in experiment [2] (20 μM in 0.5% ethanol, 10 ml) is “No off-taste or any other taste than sweetness was detected”. Moreover, the “Taste quality of the single sample (Phase I qualitative assessment)” value in experiment [2] (20 μM in 0.5% ethanol, 10 ml, ambient temperature) is “no characteristic intrinsic taste”. For the same molecule, in experiment [2] (setting [5]), the “Panelists identifying the sample with 4% fructose plus test substance as sweeter than 4% fructose only (Phase II pairwise comparison)” value was “four” and the “Panelists tasting no difference between the two samples (Phase II pairwise comparison)” value was “One”. Besides, the “Time response in the cell assay” value in experiment [3] (measured over ca. 1.5 minutes (86 seconds), FIG. 2) is reported as “selective stimulation of receptor carrying cells”. Also, the “Fructose enhancing activity in the cell based in vitro assay” value in experiment [3] (rosmarinic acid in the presence of fructose) is “acting as a fructose enhancer; also recorded: enhances the activity of fructose; also recorded: acts as a fructose enhancer”.

In the case of `O=S(=O)([O-])NC1CCCCC1.[Na+]` [sodium cyclamate], the “Fluo4-AM fluorescence increase” value in experiment [1] (setting [4]) is on record as “does not activate”.

For the origin of these results see US20120201935A1, “SWEETNESS ENHANCER, SWEETENER COMPOSITIONS, METHODS OF MAKING THE SAME AND CONSUMABLES CONTAINING THE SAME” (NUTRINOVA NUTRITION SPECIALTIES & FOOD INGREDIENTS GMBH, priority 2011, published 2012).
